From ChEMBL document CHEMBL4725261, “Design, synthesis and evaluation of carbamate-linked uridyl-based inhibitors of human ST6Gal I” (Bioorg Med Chem, 2020)

Key:
[1] = target: T1, Beta-galactoside alpha-2,6-sialyltransferase 1 (Homo sapiens) (UniProt P15907); assay: Inhibition of recombinant human N-terminal 6His-tagged ST6Gal-1 (Glu44 to Cys406 residues) assessed as CMP production at 10 uM using CMP-Neu5Ac as donar substrate and LacNAc as acceptor by CMP-Glo luminescence microplate reader assay relative to control
T1 sequence (whole entry): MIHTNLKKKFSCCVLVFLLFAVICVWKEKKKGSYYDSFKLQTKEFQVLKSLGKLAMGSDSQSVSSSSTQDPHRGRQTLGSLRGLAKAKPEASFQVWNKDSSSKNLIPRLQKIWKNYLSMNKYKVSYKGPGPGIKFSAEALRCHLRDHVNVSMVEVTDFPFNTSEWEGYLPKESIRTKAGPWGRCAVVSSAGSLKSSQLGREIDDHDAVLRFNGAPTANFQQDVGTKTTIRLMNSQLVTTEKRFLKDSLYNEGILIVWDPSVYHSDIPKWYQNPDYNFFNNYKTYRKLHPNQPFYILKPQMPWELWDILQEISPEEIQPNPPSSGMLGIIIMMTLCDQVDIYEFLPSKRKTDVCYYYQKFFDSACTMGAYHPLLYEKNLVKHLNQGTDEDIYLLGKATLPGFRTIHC

[2] = target: T1, Beta-galactoside alpha-2,6-sialyltransferase 1 (Homo sapiens); assay: Binding affinity to recombinant human N-terminal 6His-tagged ST6Gal-1 (Glu44 to Cys406 residues) assessed as Km/Ki ratio

Row | Structure (SMILES) | inhibition [1] | Ratio [2]
1 | COc1ccc(C(OC(=O)NC[C@H]2O[C@@H](n3ccc(=O)[nH]c3=O)[C@H](O)[C@@H]2O)P(=O)(O)O)cc1 (stereo in doubt; 28g-(l)) | 7.1% | –
2 | COc1ccc(C(OC(=O)NC[C@H]2O[C@@H](n3ccc(=O)[nH]c3=O)[C@H](O)[C@@H]2O)P(=O)(O)O)cc1OC1CCCC1 (stereo in doubt; 28h-(l)) | 7.9% | –
3 | COc1ccc(C(OC(=O)NC[C@H]2O[C@@H](n3ccc(=O)[nH]c3=O)[C@H](O)[C@@H]2O)P(=O)(O)O)cc1OC1CCCC1 (stereo in doubt; 28h-(s)) | 12.7% | –
4 | O=C(NC[C@H]1O[C@@H](n2ccc(=O)[nH]c2=O)[C@H](O)[C@@H]1O)OC(c1cccc(F)c1)P(=O)(O)O (stereo in doubt; 28d-(l)) | 18% | –
5 | O=C(NC[C@H]1O[C@@H](n2ccc(=O)[nH]c2=O)[C@H](O)[C@@H]1O)OC(c1ccc(F)cc1)P(=O)(O)O (stereo in doubt; 28c-(l)) | 58.9% | 32.5
6 | COc1ccc(C(OC(=O)NC[C@H]2O[C@@H](n3ccc(=O)[nH]c3=O)[C@H](O)[C@@H]2O)P(=O)(O)O)cc1 (stereo in doubt; 28g-(s)) | 18.1% | –
7 | O=C(NC[C@H]1O[C@@H](n2ccc(=O)[nH]c2=O)[C@H](O)[C@@H]1O)OC(c1ccccc1)P(=O)(O)O (stereo in doubt; 28j-(l)) | 15.2% | –
8 | O=C(NC[C@H]1O[C@@H](n2ccc(=O)[nH]c2=O)[C@H](O)[C@@H]1O)OC(c1csc2ccccc12)P(=O)(O)O (stereo in doubt; 28l-(l)) | 6.9% | –
9 | O=C(NC[C@H]1O[C@@H](n2ccc(=O)[nH]c2=O)[C@H](O)[C@@H]1O)OC(c1ccc(F)cc1)P(=O)(O)O (stereo in doubt; 28c-(s)) | 34.6% | 0.1
10 | O=C(NC[C@H]1O[C@@H](n2ccc(=O)[nH]c2=O)[C@H](O)[C@@H]1O)OC(c1ccccc1)P(=O)(O)O (stereo in doubt; 28j-(s)) | 7.1% | –
11 | O=C(NC[C@H]1O[C@@H](n2ccc(=O)[nH]c2=O)[C@H](O)[C@@H]1O)OC(c1ccc(F)c(Oc2ccccc2)c1)P(=O)(O)O (stereo in doubt; 28b-(l)) | 1.8% | –
12 | Nc1ccn([C@@H]2O[C@H](CNC(=O)OC(c3cccc(Oc4ccccc4)c3)P(=O)(O)O)[C@@H](O)[C@H]2O)c(=O)n1 (stereo in doubt; 30-(l)) | 6.3% | –
13 | O=C(NC[C@H]1O[C@@H](n2ccc(=O)[nH]c2=O)[C@H](O)[C@@H]1O)OC(c1csc2ccccc12)P(=O)(O)O (stereo in doubt; 28l-(s)) | 5.9% | –
14 | O=C(NC[C@H]1O[C@@H](n2ccc(=O)[nH]c2=O)[C@H](O)[C@@H]1O)OC(c1cccc(F)c1)P(=O)(O)O (stereo in doubt; 28d-(s)) | 36.6% | 1.9
15 | O=C(NC[C@H]1O[C@@H](n2ccc(=O)[nH]c2=O)[C@H](O)[C@@H]1O)OC(c1cccc(Oc2ccccc2)c1)P(=O)(O)O (stereo in doubt; 28a-(l)) | 28.2% | –
16 | O=C(NC[C@H]1O[C@@H](n2ccc(=O)[nH]c2=O)[C@H](O)[C@@H]1O)OC(c1cc2ccccc2s1)P(=O)(O)O (stereo in doubt; 28k-(s)) | 66.4% | 4.4
17 | O=C(NC[C@H]1O[C@@H](n2ccc(=O)[nH]c2=O)[C@H](O)[C@@H]1O)OC(c1ccc(OC2CCCC2)cc1)P(=O)(O)O (stereo in doubt; 28i-(l)) | 78% | 3.2
18 | CCCOc1cccc(C(OC(=O)NC[C@H]2O[C@@H](n3ccc(=O)[nH]c3=O)[C@H](O)[C@@H]2O)P(=O)(O)O)c1 (stereo in doubt; 28e-(s)) | 7.2% | –
19 | CCCOc1cccc(C(OC(=O)NC[C@H]2O[C@@H](n3ccc(=O)[nH]c3=O)[C@H](O)[C@@H]2O)P(=O)(O)O)c1 (stereo in doubt; 28e-(l)) | 30.9% | 1.8
20 | O=C(NC[C@H]1O[C@@H](n2ccc(=O)[nH]c2=O)[C@H](O)[C@@H]1O)OC(c1cc2ccccc2s1)P(=O)(O)O (stereo in doubt; 28k-(l)) | 13.2% | –
21 | COc1cccc(C(OC(=O)NC[C@H]2O[C@@H](n3ccc(=O)[nH]c3=O)[C@H](O)[C@@H]2O)P(=O)(O)O)c1 (stereo in doubt; 28f-(l)) | 23.6% | –
22 | O=C(NC[C@H]1O[C@@H](n2ccc(=O)[nH]c2=O)[C@H](O)[C@@H]1O)OC(c1ccc(OC2CCCC2)cc1)P(=O)(O)O (stereo in doubt; 28i-(s)) | 19% | 0.7
23 | COc1cccc(C(OC(=O)NC[C@H]2O[C@@H](n3ccc(=O)[nH]c3=O)[C@H](O)[C@@H]2O)P(=O)(O)O)c1 (stereo in doubt; 28f-(s)) | 29.8% | –
24 | O=C(NC[C@H]1O[C@@H](n2ccc(=O)[nH]c2=O)[C@H](O)[C@@H]1O)OC(c1cccc(Oc2ccccc2)c1)P(=O)(O)O (stereo in doubt; 28a-(s)) | 19.9% | –
25 | O=C(NC[C@H]1O[C@@H](n2ccc(=O)[nH]c2=O)[C@H](O)[C@@H]1O)OC(c1ccc(F)c(Oc2ccccc2)c1)P(=O)(O)O (stereo in doubt; 28b-(s)) | 1.1% | –
26 | Nc1ccn([C@@H]2O[C@H](CNC(=O)OC(c3cccc(Oc4ccccc4)c3)P(=O)(O)O)[C@@H](O)[C@H]2O)c(=O)n1 (stereo in doubt; 30-(s)) | 2.2% | –
